This is an account of results in patent EP0579804B1, “BIOLOGICAL ARTIFICIAL LIVER” (MONSANTO COMPANY, priority 1992, dated 1993).

The data set deals with Hepatocytes. Nature of the data set: extracorporeal hepatic metabolism in the hepatocyte bioreactor attached to an ahepatic pig. Type of data set: in vitro ADME, outbred Yorkshire/white pig. To be noted: administered into the ultrafiltrate at the inlet of the bioreactor; metabolites 7-OH-coumarin and monoethylglycinexylidide (MEGX) measured at the outlets of the bioreactors.

Description: The medium used was the hormone-supplemented Waymouth medium as described in Example 1. To accommodate 2 to 5 billion cells, the bioreactor was scaled up to two containment vessels, each with an internal diameter of 40 mm and a height of 100 mm. Glass beads of approx. 2 mm diameter and a total volume of 250 ml per containment vessel were used. Medium was perfused at a recycle rate of 360 ml/min.. […] The bioreactor was attached to an ahepatic pig (liver removed by surgery to mimic total hepatic failure) at approx. 2 hrs. after hepatocyte inoculation. Blood from the left femoral artery was directed into a Minntech hemoconcentrator. A 12 fringe elecath canula was inserted into the femoral artery and connected to a 1/4" PVC tubing to the hemoconcentrator. The hemoconcentrator separated the blood into a cell free ultrafiltrate fraction, and a blood cell fraction. The blood cell fraction was returned to the femoral vein via a similar tubing. The ultrafiltrate exited the hemoconcentrator via a 1/4" PVC tubing and entered the hepatocyte bioreactor system with the flow rate adjusted to 40 ml/min. using a roller pump. […] The respective metabolites, 7-OH-coumarin and monoethylglycinexylidide (MEGX), were measured at the outlets of the bioreactors before the ultrafiltrate was returned to the animal.

With `CCOc1ccc2ccc(=O)oc2c1` [7-ethoxycoumarin], the metabolism result is listed as “Significant metabolism”.
